Laboratory results taken from publication PMC4436593, “Endoplasmic reticulum stress-independent activation of unfolded protein response kinases by a small molecule ATP-mimic” (eLife, 2015).
Entries after “also recorded” stand apart in the source; their conditions may differ.

What was measured:
[1] = tested on: XBP1 mRNA splicing in HEK293T cells; test: XBP1 mRNA splicing by RT-PCR in HEK293T cells; assay type: cell-based, human; conditions: [AD60] = 1 μM, 4 hr
Experimental: To examine the effects of IPA in living cells, we monitored the UPR in HEK293T cells using RT-PCR to measure splicing of XBP1 mRNA. […] At a concentration of 2 μM IPA, splicing was induced within 2 hr (lane 5). […] We used tunicamycin (Tm), which induces ER stress by blocking N-linked glycosylation, as a positive control to induce the UPR (Figure 2A, lanes 7, and Figure 2B, lane 4).
(§1) Cells were lysed and total RNA was collected (Total RNA Kit 1, EZ-RNA, EZNA [USA]). PolyA^+ mRNA was reverse transcribed with M-MLV (Invitrogen), and the resulting cDNA was used as a template for PCR amplification across the fragment of XBP1 cDNA containing the intron. Primers used to amplify human XBP1: 5′-[…]-3′ and 5′-[…]-3′. To amplify murine XBP1: 5′-[…]-3′ and 5′-[…]-3′. PCR conditions were as follows: 95°C for 5 min, 95°C for 1 min, 58°C for 30 s, 72°C for 30 s, and 72°C for 5 min, with 20 cycles of amplification. PCR products were resolved on a 2.5% agarose tris-acetate EDTA (TAE) gel. As previously reported, a hybrid amplicon species consisting of unspliced Xbp-1 annealed to spliced Xbp-1 can also be produced through this PCR reaction and was visible as a slower migrating band above the unspliced amplicon. The same cDNA was used as template for PCR of DERLIN-3 and HERPUD1, both ATF6 targets, and GAPDH, which was used as loading control. Primers used included the following: DERLIN-3, 5′-[…]-3′ and 5′-[…]-3′; HERPUD1-1, 5′-[…]-3′ and 5′-[…]-3′; GAPDH, 5′-[…]-3′ and 5′-[…]-3′. PCR conditions were: 95°C × 5 min, 95°C × 1 min, 56°C × 30 s, 72°C for 30 s for 25 cycles, 72°C for 5 min at 4°C. PCR products were resolved on a 2% agarose TAE gel.

[2] = tested on: XBP1 mRNA-splicing reporter (IRE1-mediated) in HEK293T cells; test: XBP1-luciferase splicing reporter in HEK293T cells; assay type: cell-based; conditions: Homo sapiens, HEK-293T, in the presence of Tm (2 μg/ml), read-out: IC50 of XBP1-luciferase-splicing reporter activation
Description: A plasmid encoding a modified ER stress reporter construct consisting of a C-terminally FLAG-tagged firefly luciferase coding sequence fused to an N-terminal hemagglutinin-tagged tandem repeat of a partial sequence of XBP1 of human origin lacking its DNA-binding domain and containing the IRE1-cognate intron (pCAX-HA-2xXBP1ΔDBD(anATG)-LUC-F, kind gift of Takao Iwawaki [[Hosoda et al., 2010]]), was used as a template to generate a retroviral expression construct. The coding sequence of the reporter was amplified by PCR using primers with engineered BamHI and EcoRI sites and was subsequently cloned into the cognate sites of the retroviral expression vector pBABE.puro (Addgene) to generate construct DAA-A171. DAA-A171 was used to generate recombinant retroviral particles using standard methods and the resulting retroviral supernatant was used to transduce HEK293T cells, which were then subsequently selected with puromycin to create a stable reporter cell line.

HEK293T cells = test: HEK293T cell viability (CellTiter-Blue, 24 hr); assay type: cell-based; conditions: 24 hr, 1 μM, listed as GSK
Experimental: HEK293T cells were grown in DMEM (Sigma) complete media containing 10% FBS, 10 units/ml penicillin (Invitrogen), and 10 μg/ml streptomycin (Invitrogen). Cells were plated at a density of 30,000 cells per well in 96-well black plates with clear flat bottoms (Corning, Sigma-Aldrich) 24 hr before the experiment. A 12-point semi-logarithmic dilution series of compounds was made starting at 30 μM not to exceed 0.1% DMSO after final dilution into the growth media. Viability assays were conducted over the course of 24 hr. Cell viability was determined using CellTiter-Blue (Promega) following the manufacturer's instructions. […] Experiments were done in triplicate, and mean values were computed for each data point.

[3] = tested on: PERK and eIF2α phosphorylation in HEK293T cells; test: PERK mobility shift and eIF2α phosphorylation by immunoblotting in HEK293T cells; assay type: cell-based
Experimental: To evaluate effects of IPA on the PERK branch, we measured the phosphorylation state of PERK and eIF2α by Western blotting. […] We also monitored PERK activation by phosphorylation of eIF2α, detected with a phospho-eIF2α-specific antibody (Figure 3C).
Cells were lysed in 50 mM Tris-HCl, 2% SDS, 10% glycerol, 0.01% bromophenol blue, pH 6.8 supplemented with phosphatase inhibitors (Sigma) and protease inhibitors (Roche). 30 μg to 50 μg of total protein was loaded on each lane of 8% or 10% SDS-PAGE gels. The separated proteins were then transferred onto nitrocellulose membranes for immunoblotting. The following antibodies and dilutions were used: anti-β-actin 1:10,000 (A5441, Sigma), anti-total PERK at 1:1000 (C33E10, Cell Signaling Technology), anti-phospho eIF2α at 1:1000 (3597S, Cell Signaling Technology), anti-total eIF2α at 1:1000 (L57A5, Cell Signaling Technology). After overnight incubation with primary antibody, membranes were washed in PBS with 0.05% Tween and incubated in HRP-coupled secondary antibody anti-rabbit (611–1302, Rockland) or anti-mouse (610–1302, Rockland) diluted at 1:5000 in wash buffer. Immunoreactive bands were detected by chemiluminescence.

[4] = tested on: protein translation in HEK293T cells; test: Metabolic labeling: [35S] methionine incorporation in HEK293T cells; assay type: cell-based; conditions: IPA 1 μM + GSK 1 μM
Experimental: HEK293T cells (500,000 cells/ml) were plated in 12-well flat bottom culture cluster dishes (Costar, Fisher Scientific) 24 hr before the experiment. IPA (1 μM), or a combination of IPA with GSK2606414 (TRC inc. […] Cells lysates were kept on ice for 30 min before high-speed centrifugation followed by denaturation at 95°C. The samples were resolved on an SDS-polyacrylamide gel, which were then stained with Coomassie blue to ascertain protein loading. […] The resulting autoradiograms were quantified using ImageQuant software (Molecular Dynamics).

PERK = tested on: PERK; parameters: method as in Axten et al., 2012; Moreno et al., 2013; conditions: ref Axten et al., 2012; Moreno et al., 2013; read-out: EC50 of PERK inhibition in cells; cited from earlier work
[5] = tested on: IRE1α-GFP in T-REx293 cells; test: IRE1-GFP foci formation in T-REx293 cells (confocal microscopy); assay type: cell-based; conditions: doxycycline-induced IRE1α-GFP
Description: We next used a T-REx293 cell line, containing a genome-integrated doxycycline-inducible IRE1α-GFP fusion gene, to monitor IRE1α oligomerization in vivo ([Li et al., 2010]). In the presence of doxycycline, IRE1α-GFP was expressed and localized to the ER (Figure 2D). […] Furthermore, the foci dissolved by 8 hr of treatment as cells attenuated IRE1α signaling even in the presence of unmitigated ER stress (Figure 2D, upper panels) ([Li et al., 2010]). […] While Tm-induced foci became larger and fewer over time as previously observed, IPA-induced foci remained small and numerous.
T-REx293 cells were split 2 days before imaging onto glass-bottom micro-well dishes (MatTek) at 5 × 10^4 cells/dish. Doxycyclin-containing medium (10 nM doxycycline) was added for 24 hr, withdrawn before imaging and replaced with imaging media (Hank's Balanced Salt Solution [Gibco], 2% FBS, and 5 mM HEPES pH 7.0). Images were acquired on a spinning-disk confocal microscope as described ([Li et al., 2010]).

[6] = tested on: ATF6 transcriptional targets HERPUD1 (HERP1) and DERLIN3 (DERL3); test: ATF6 target mRNAs HERP1 and DERL3 by RT-PCR in HEK293T cells; assay type: cell-based; conditions: IPA 1 μM and 4 μM, Tm
Description: To assess the effects of IPA on the activity of the two other UPR branches, we first examined activation of ATF6. To this end, we monitored mRNA levels by RT-PCR for two ATF6-driven transcriptional target genes, HERP1 and DERL3, in HEK293T cells.
as §1, with “PCR conditions were: 95°C × 5 min, 95°C × 1 min, 56°C × 30 s, 72°C for 30 s for 25 cycles, 72°C for 5 min at 4°C. PCR products were resolved on a 2% agarose TAE gel.” left out

[7] = molecular target: the molecule itself; test: cell-based or functional assay
[8] = molecular target: the molecule itself; test: SEC; GST-PERK purified on GST-Sepharose and Superdex 200 10/300 gel filtration in buffer B (50 mM Tris pH 7.5, 50 mM NaCl, 5 mM MgCl2, 3 mM DTT, 1% glycerol); the paper does not say how the dimer was determined

Nc1ncnc2c1c(-c1ccc(NC(=O)Nc3cccc(C(F)(F)F)c3)cc1)nn2C1CCCC1 [AD60, reference compound]
effect on Tm-induced XBP1 mRNA splicing ([1]; Tm): inhibited Tm-induced XBP1 mRNA splicing | effect on IPA-induced XBP1 mRNA splicing ([1]; up to highest IPA concentration tested): fully ablated IPA-induced XBP1 mRNA splicing | IC50 [2]: 750 nM

Cn1cc(-c2ccc3c(c2)CCN3C(=O)Cc2cccc(C(F)(F)F)c2)c2c(N)ncnc21 [GSK2606414, 7-methyl-5-(1-{[3-(trifluoromethyl)phenyl]acetyl}-2,3-dihydro-1H-indol-5-yl)-7H-p yrrolo[2,3-d]pyrimidin-4-amine, reference compound]
effect on HEK293T cell viability at 1 μM (HEK293T cells): No effect on viability was observed; also recorded: no cell toxicity | effect of compound alone on the PERK pathway ([3]; GSK 1 μM alone): No effect on the pathway was observed | effect on IPA-induced PERK and eIF2α phosphorylation ([3]; GSK 1 μM, IPA 0.5 and 1 μM): abolished IPA-induced PERK and eIF2α phosphorylation | effect on translation in IPA-treated cells [4]: restored translation to baseline levels | EC50 (PERK): […]

tunicamycin [Tm, reference compound]
IRE1α-GFP foci formation [5]: rapidly induced the relocalization of IRE1α-GFP into discrete foci | induction of ATF6 target genes HERP1 and DERL3 [6]: induced the expression of these two genes

B1: PERK cytosolic domain (535–1093 Δ660–868) (domain or fragment, human, UniProt Q9NZJ5 535-1093, looked up)
chain: ATTFIVRRLFHPHPHRQRKESETQCQTENKYDSVSGEANDSSWNDIKNSGYISRYLTDFEPIQCLGRGGFGVVFEAKNKVDDCNYAIKRIRLPNRELAREKVMREVKALAKLEHPGIVRYFNAWLKNTTEKLQPSSPKVYLYIQMQLCRKENLKDWMNGRCTIEERERSVCLHIFLQIAEAVEFLHSKGLMHRDLKPSNIFFTMDDVVKVGDFGLVTAMDQDEEEQTVLTPMPAYARHTGQVGTKLYMSPEQIHGNSYSHKVDIFSLGLILFELLYPFSTQMERVRTLTDVRNLKFPPLFTQKYPCEYVMVQDMLSPSPMERPEAINIIENAVFEDLDFPGKTVLRQRSR
rate of eIF2α phosphorylation by the PERK cytoplasmic domain against IPA concentration, fold change normalised to DMSO control; greatest activation at 500 nM IPA [7]: 3.3 fold

B2: GST-PERK kinase domain (580–1077 aa) (domain or fragment, murine, UniProt Q9Z2B5 580-1077, looked up)
chain: GYVSRYLTDFEPIQCMGRGGFGVVFEAKNKVDDCNYAIKRIRLPNRELAREKVMREVKALAKLEHPGIVRYFNAWLETPPEKWQEEMDEIWLKDESTDWPLSSPSPMDAPSVKIRRMDPFSTKEQIEVIAPSPERSRSFSVGISCGQTSSSESQFSPLEFSGTDCGDNSDSADAAYNLQDSCLTDCEDVEDGTVDGNDEGHSFELCPSEASPYTRSREGTSSSIVFEDSGCGNASSKEEPRGNRLHDGNHYVNKLTDLKCSSSRSSSEATTLSTSPTRPTTLSLDFTKNTVGQLQPSSPKVYLYIQMQLCRKENLKDWMNRRCSLEDREHGVCLHIFLQIAEAVEFLHSKGLMHRDLKPSNIFFTMDDVVKVGDFGLVTAMDQDEEEQTVLTPMPAYATHTGQVGTKLYMSPEQIHGNNYSHKVDIFSLGLILFELLYPFSTQMERVRILTDVRNLKFPLLFTQKYPQEHMMVQDMLSPSPTERPEATDIIENAIFEN
notes: PERK, murine, cytosolic kinase domain, residues 580–1077; The dimer may therefore be held by GST; also called PERK-GST fusion protein; GST-PERK fusion protein; source: E. coli BL21DE3 RIPL, purified (GST-Sepharose, Superdex 200 10/300); not shown: GST, N-terminal, kept
stoichiometry N [8]: 2
